Values of other authors in US20170022153A1, “FUMARATE COMPOUNDS, PHARMACEUTICAL COMPOSITIONS THEREOF, AND METHODS OF USE” (priority 2015, published 2017).

- aqueous solubility: poor
SMILES: COC(=O)/C=C/C(=O)OC [DMF, dimethylfumarate]
